Legend:
[1] = Ratio of the mean IC50 for sterol-synthesis inhibition of hepatocytes relative to hepatocytes in rat; format: functional, Hepatocyte
[2] = Ratio of the mean IC50 for sterol-synthesis inhibition of adrenal relative to hepatocytes in rat; format: functional, Hepatocyte
[3] = Ratio of the mean IC50 for sterol-synthesis inhibition of testes relative to hepatocytes in rat; format: functional, Hepatocyte
[4] = Ratio of the mean IC50 for sterol-synthesis inhibition of spleen relative to hepatocytes in rat; format: functional, Hepatocyte
[5] = system: HMG-CoA reductase (Rattus norvegicus); assay: In vitro inhibition of rat liver microsomal HMG-CoA reductase activity; No Activity

CC[C@H](C)C(=O)O[C@H]1C[C@@H](C)C=C2C=C[C@H](C)[C@H](CC[C@@H]3C[C@@H](O)CC(=O)O3)[C@H]21 [LOVASTATIN]
Ratio [1]: 1
Ratio [2]: 1
Ratio [3]: 1.3
Ratio [4]: 1.2

Cn1nnnc1C(/C=C/[C@H]1C[C@H](O)CC(=O)O1)=C(c1ccc(F)cc1)c1ccc(F)cc1
IC50 [5]: Not Active

Cn1nnnc1C(/C=C/[C@@H]1C[C@@H](O)CC(=O)O1)=C(c1ccc(F)cc1)c1ccc(F)cc1
Ratio [1]: 1
Ratio [2]: 76
Ratio [3]: 86
Ratio [4]: 149
